Values of other authors in patent publication US20090281186A1, “Composition and Method for Reducing Stress” (priority 2008, published 2009).

Experiments:
[1] = sixteen individuals; acute administration; 200 mg of L-theanine or 1 mg of alprazolam vs placebo
[2] = system: dopamine release from the corpus straitum; serotonin levels in the hippocampus and thalamus; conditions: rats, L-theanine administration
[3] = 21 patients; 12 grams of inositol per day for four weeks; compared to placebo
[4] = inositol compared with fluvoxamine

| Structure (SMILES) | effect on subjects during the experimental relaxed state [1] | acute stress responses (psychological and physiological measures) (oral administration, 200 mg of L-theanine) | perception of stress (psychological measures) (twelve individuals, 200 mg of L-theanine before or midway through the task vs placebo) | heart rates during the stress task (twelve individuals, 200 mg of L-theanine vs placebo) | dopamine release from the corpus straitum [2] | serotonin levels in the hippocampus and thalamus [2] | severity and frequency of panic attacks [3] | effectiveness in treating panic disorders [4] |
| --- | --- | --- | --- | --- | --- | --- | --- | --- |
| CCNC(=O)CCC(N)C(=O)O [L-theanine, 2-amino-4-(ethylcarbamoyl)butyric acid] | caused a tranquil state | acute stress responses were reduced | greater increase in the perception of stress in the placebo condition compared to the other conditions | heart rates were higher in the placebo condition compared to the L-theanine groups | increase dopamine release | increase serotonin levels | – | – |
| Cc1nnc2n1-c1ccc(Cl)cc1C(c1ccccc1)=NC2 [alprazolam, reference compound] | had no effect | – | – | – | – | – | – | – |
| O[C@H]1[C@H](O)[C@@H](O)[C@H](O)[C@@H](O)[C@H]1O [inositol, cis-1,2,3,5-trans-4,6-cyclohexanehexol] | – | – | – | – | – | – | significantly decreased | equally effective |
